Test results taken from PubChem BioAssay (NCI).
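48-hour exposure; five concentrations; linearly interpolated endpoints. Here, GI50 denotes the concentration required for 50% inhibition of growth. TGI marks complete inhibition of growth.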

Legend:
Assay in all cases: DTP human tumour cell line panel, 48 h
PC-3 prostate = test system: PC-3 prostate
MOLT-4 leukemia = test system: MOLT-4 leukemia
KM12 colon = test system: KM12 colon
IGROV1 ovarian = test system: IGROV1 ovarian
SK-OV-3 ovarian = test system: SK-OV-3 ovarian
NCI-H522 lung = test system: NCI-H522 lung
UACC-62 melanoma = test system: UACC-62 melanoma
SR leukemia = test system: SR leukemia
A498 renal = test system: A498 renal
SF-295 CNS = test system: SF-295 CNS

SMILES	GI50 (PC-3 prostate)	TGI (PC-3 prostate)	GI50 (MOLT-4 leukemia)	TGI (MOLT-4 leukemia)	GI50 (KM12 colon)	TGI (KM12 colon)	GI50 (IGROV1 ovarian)	TGI (IGROV1 ovarian)	GI50 (SK-OV-3 ovarian)	TGI (SK-OV-3 ovarian)	GI50 (NCI-H522 lung)	TGI (NCI-H522 lung)	GI50 (UACC-62 melanoma)	TGI (UACC-62 melanoma)	GI50 (SR leukemia)	TGI (SR leukemia)	GI50 (A498 renal)	TGI (A498 renal)	GI50 (SF-295 CNS)	TGI (SF-295 CNS)
O=C(c1cccs1)c1nc2cc(Cl)ccc2[n+]([O-])c1C(F)(F)F	71400 nM	> 100 µM	70100 nM	> 100 µM	85400 nM	> 100 µM	> 100000 nM	> 100 µM	> 100 µM	> 100 µM	29600 nM	> 100 µM	67800 nM	> 100 µM	35400 nM	> 100 µM	92000 nM	> 100 µM	91300 nM	> 100 µM
COc1ccc(C2CC(c3ccc4ccccc4c3)=NN2c2nc(O)c(C3=c4cc(OC)ccc4=NC3=O)s2)cc1 (stereo not drawn)	67.5 nM	0.334 µM	110 nM	0.91 µM	85.6 nM	0.286 µM	64.1 nM	0.388 µM	0.13 µM	0.431 µM	51.9 nM	0.154 µM	121 nM	0.368 µM	53.1 nM	2.92 µM	124 nM	0.3 µM	60.8 nM	0.165 µM
Cc1cc(=O)oc2cc(OC(=O)Nc3ccccc3)ccc12		> 100 µM		> 100 µM		> 100 µM		> 100 µM		> 100 µM		> 100 µM		> 100 µM		83.5 µM		> 100 µM		> 100 µM
CCN(CC)CC(O)COc1c(Br)c(Br)c(Br)c2c1OC(C)(C)C2 (stereo not drawn)	2810 nM	11.5 µM	1670 nM	3.68 µM	3690 nM	13.8 µM	1910 nM	5.83 µM	16.7 µM	36.4 µM	3420 nM	14.4 µM	1900 nM	3.47 µM	1750 nM	3.81 µM	4440 nM	17.3 µM	1100 nM	2.71 µM
O=Cc1ccc(-c2ccc(-c3ccc(C=O)o3)[se]2)o1	> 100000 nM	> 100 µM	> 100000 nM	> 100 µM	> 100000 nM	> 100 µM	> 65900 nM	> 100 µM	> 85.8 µM	> 100 µM	16300 nM	31.1 µM	> 100000 nM	> 100 µM	> 100000 nM	> 100 µM	302 nM	10.5 µM	> 46200 nM	> 65.6 µM
Cn1c(=O)c2[nH]c(CCCc3ccc([N+](=O)[O-])cc3)nc2n(C)c1=O		> 100 µM		> 100 µM		> 100 µM		> 100 µM		> 100 µM		> 100 µM		> 100 µM		> 100 µM		> 100 µM		> 100 µM
CS(=N)(=O)CCC(N)P(=O)(O)O (stereo not drawn)		> 100 µM		> 100 µM		> 100 µM		> 100 µM		> 100 µM		> 100 µM		> 100 µM		> 100 µM		> 100 µM		> 100 µM
NC(=N\N=C/c1ccc(Cl)cc1Cl)/C(N)=N\N=C/c1ccc(Cl)cc1Cl	> 100000 nM	> 100 µM	> 100000 nM	> 100 µM	> 100000 nM	> 100 µM	4000 nM	> 100 µM	1.16 µM	11.3 µM	63000 nM	> 100 µM	> 69200 nM	> 100 µM	> 100000 nM	> 100 µM	2210 nM	8.37 µM	2840 nM	89.8 µM
O=C(O)c1ccc(Oc2nc3ccccc3s2)cc1		> 100 µM		> 100 µM		> 100 µM		> 100 µM		> 100 µM		> 100 µM		> 100 µM		> 100 µM		> 100 µM		> 100 µM
COc1cc(/C=C/C(=O)c2c(C)nc3ccccc3c2C)ccc1OCCCCOc1cc2c(cc1OC)C(=O)N1CCC[C@H]1C=N2	296 nM	1.35 µM	325 nM	1.12 µM	308 nM	0.839 µM			1.18 µM	3.08 µM	339 nM	1.26 µM	600 nM	2.02 µM	325 nM	> 100 µM	286 nM	0.779 µM	416 nM	1.56 µM
CCOc1cc(/C=C/C(=O)C(C(=O)/C=C/c2ccc(OC(=O)CNc3nnc(C)s3)c(OCC)c2)C(=O)CNc2nnc(C)s2)ccc1OC(=O)CNc1nnc(C)s1	1510 nM	15.6 µM	681 nM	6.56 µM	1300 nM	2.94 µM			4.15 µM	18.2 µM	2030 nM	5.71 µM	1430 nM	2.8 µM	236 nM	1.45 µM	1800 nM	3.64 µM	3080 nM	10.7 µM
O=C1/C(=C\c2ccccc2)CN(C(=O)c2ccccc2)C/C1=C\c1ccccc1	2270 nM	7.86 µM	3190 nM	43.6 µM	1790 nM	3.4 µM	2660 nM	6.57 µM	3.1 µM	9.44 µM	2290 nM	5.27 µM	1690 nM	3.42 µM	335 nM	2.9 µM	13000 nM	27.4 µM		
CN(CSc1ccc(Cl)cc1)c1ccc(CSc2ccc(Cl)cc2)cc1	3270 nM	25.8 µM	2660 nM	> 100 µM	3240 nM	15.1 µM			7.9 µM	23.4 µM	1190 nM	6.88 µM	3820 nM	15.8 µM	1770 nM	7.58 µM	1590 nM	9.61 µM	2860 nM	13.7 µM
C/C(=N\O)c1cccc(Nc2cc(-c3ccccc3)nc3c(O)cccc23)c1	1940 nM	19.9 µM			836 nM	22.9 µM	2410 nM	18 µM	2.62 µM	25 µM	1850 nM	9.36 µM	1640 nM	16.8 µM	415 nM		3310 nM	18.1 µM	671 nM	
